Measured values from patent US6642392B1 (priority 1997, dated 2003).
Read-outs that look alike come from different tables or passages of the source.

Legend:
Assay type in all cases: in vivo
[1] = test system: Eiysiphe graminis f. sp. tritici; assay: Test A: wheat powdery mildew, preventive spray on wheat seedlings; details: for Test A disease control rating: wheat powdery mildew; for Test A disease control rating (100 = 100% disease control, 0 = no disease control): wheat seedlings sprayed to run-off, inoculated the following day, rating relative to controls, unmarked compounds (standard test rate)
Method in brief: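 Compounds (3% acetone, 250 ppm Trem 014) sprayed to run-off on wheat seedlings, inoculated next day with spore dust. Incubated 7 days at 20° C before disease rating, 0–100% control relative to untreated controls.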

[2] = test system: Puccinia recondita; assay: Test B: wheat leaf rust, preventive spray on wheat seedlings; details: for Test B disease control rating: wheat leaf rust; for Test B disease control rating (100 = 100% disease control, 0 = no disease control): wheat seedlings sprayed to run-off, inoculated the following day, rating relative to controls, unmarked compounds (standard test rate)
Method in brief: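 Wheat seedlings were sprayed to run-off with compound (3% acetone, 250 ppm Trem 014), then inoculated with P. recondita spores the next day. They were held 24 h saturated at 20 °C, then 6 days at 20 °C. Ratings are 0–100% disease control versus controls.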

[3] = test system: Pyricularia oryzae; details: for Test C disease control rating: rice blast; for Test C disease control rating (100 = 100% disease control, 0 = no disease control): rice seedlings sprayed to run-off, inoculated the following day, rating relative to controls, unmarked compounds (standard test rate)
[4] = test system: Phytophthora infestans; details: for Test D disease control rating: tomato late blight; for Test D disease control rating (100 = 100% disease control, 0 = no disease control): tomato seedlings sprayed to run-off, inoculated the following day, rating relative to controls, unmarked compounds (standard test rate)
[5] = test system: Botrytis cinerea; assay: Test E: gray mold, preventive spray on cucumber seedlings; details: for Test E disease control rating: gray mold on cucumber; for Test E disease control rating (100 = 100% disease control, 0 = no disease control): cucumber seedlings sprayed to run-off, inoculated the following day, rating relative to controls, unmarked compounds (standard test rate)
Method in brief: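 Compounds in 3% acetone were suspended with 250 ppm Trem 014 surfactant and sprayed to run-off on cucumber seedlings. B. cinerea spores were inoculated next day, then 48 h saturated humidity at 20° C and 5 days at 20° C. Disease control rated 0–100% versus controls.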

[6] = 100 = 100% disease control, 0 = no control relative to controls, unmarked entries (standard test concentration)
[7] = 100 = 100% disease control, 0 = no control, unmarked entries (standard test concentration)

SMILES | Test A disease control rating ([1]; tested at 40 ppm) | Test B disease control rating ([2]; tested at 40 ppm) | Test C disease control rating ([3]; tested at 40 ppm) | Test D disease control rating ([4]; tested at 40 ppm) | Test E disease control rating ([5]; tested at 40 ppm) | Test A disease control rating (100 = 100% disease control, 0 = no disease control) [1] | Test B disease control rating (100 = 100% disease control, 0 = no disease control) [2] | Test C disease control rating (100 = 100% disease control, 0 = no disease control) [3] | Test D disease control rating (100 = 100% disease control, 0 = no disease control) [4] | Test E disease control rating (100 = 100% disease control, 0 = no disease control) [5] | also measured
CCC1(C(=O)NC(C)COc2cccc(F)c2)C(C)C1(Cl)Cl (mixture of isomers) [79b] | 0% | 0% | 100% | 0% | 0% | – | – | – | – | – | –
CCC1(C(=O)NC(C)COc2ccccc2)C(C)C1(Cl)Cl (mixture of isomers) [77b] | 33% | 0% | 74% | 0% | 0% | – | – | – | – | – | –
CC(COc1ccccc1CC#N)NC(=O)C(C#N)C(C)C(C)(C)C (mixture of isomers) [compound 61] | 74% | 0% | 73% | 0% | 0% | – | – | – | – | – | –
CCC1(C(=O)NC(C)COc2ccccc2CF)C(C)C1(Cl)Cl (mixture of isomers) [compound 92] | 60% | 0% | 0% | 0% | 0% | – | – | – | – | – | –
CCC1(C(=O)NC(C)COc2ccc(Cl)c(Cl)c2Cl)C(C)C1(Cl)Cl (centres unmarked) [compound 243] | – | – | – | – | – | 38% | 0% | 74% | 74% | 0% | –
CCC(C#N)C(=O)N[C@H](C)[C@H](Oc1ccccc1C#N)c1ccccc1 (some centres unmarked) [compound 304] | – | – | – | – | – | 0% | 0% | 97% | 0% | 0% | –
CC(COc1ccccc1C#N)NC(=O)C(C#N)C(C)(C)C (mixture of isomers) [13a] | – | – | – | – | – | – | – | – | – | – | Test A disease control rating [1, 6]: 34%; Test B disease control rating [2, 7]: 0%; Test C disease control rating [3, 7]: 51%; Test D disease control rating [4, 7]: 0%; Test E disease control rating [5, 7]: 0%
CC(COc1ccccc1)NC(=O)C(C#N)C(C)C(C)(C)C (mixture of isomers) [compound 56] | 74% | 0% | 85% | 0% | 0% | – | – | – | – | – | –
C[C@H](COc1ccc(Cl)c(Cl)c1)NC(=O)C(C#N)C(C)(C)C (single isomer, unassigned) [181b] | – | – | – | – | – | – | – | – | – | – | Test A disease control rating [1, 6]: 37%; Test B disease control rating [2, 7]: 0%; Test C disease control rating [3, 7]: 74%; Test D disease control rating [4, 7]: 0%; Test E disease control rating [5, 7]: 90%
CC(C)(C)C(C#N)C(=O)NC/C=C/c1ccc(Cl)cc1Cl (racemic) [compound 274] | – | – | – | – | – | 61% | 28% | 74% | 23% | 58% | –
CCC1(C(=O)NC(C)COc2c(Cl)ccc(Cl)c2Cl)C(C)C1(Cl)Cl (centres unmarked) [compound 117] | 83% | 0% | 74% | 0% | 0% | – | – | – | – | – | –
CCC1(C(=O)NC(C)COc2cc(F)cc(F)c2)C(C)C1(Cl)Cl (centres unmarked) [compound 234] | – | – | – | – | – | 0% | 0% | 100% | 0% | 0% | –
CC(COc1cccc(F)c1)NC(=O)C(C#N)C(C)(C)C (mixture of isomers) [3a] | – | – | – | – | – | – | – | – | – | – | Test A disease control rating [1, 6]: 85%; Test B disease control rating [2, 7]: 0%; Test C disease control rating [3, 7]: 94%; Test D disease control rating [4, 7]: 0%; Test E disease control rating [5, 7]: 55%
